In patent US20250250267A1, “NITROGEN-CONTAINING BRIDGED HETEROCYCLIC COMPOUND, PREPARATION METHOD THEREFOR, AND MEDICAL USE THEREOF” (Jiangsu Hengrui Pharmaceuticals Co., Ltd., priority 2020, published 2025):

Legend:
[1] = tested on: human complement alternative pathway; assay: Inhibition of human complement alternative pathway (zymosan-activated human serum with EGTA, C5b-9 formation); type: biochemical; details: zymosan A, C5b-9 readout
Text: The alternative pathway can be activated by zymosan. The extent of activation of the alternative pathway can be evaluated by assaying the formation of the C5b-9 complex. […] Since the activation of the two pathways requires both magnesium and calcium ions, and the alternative pathway requires magnesium ions only, after chelation with the calcium ion chelator EGTA, the alternative pathway is not inhibited, while the classical pathway and the lectin pathway are. After chelation with EDTA, the three pathways are all inhibited. Therefore, the inhibitory effects of the small-molecule compounds on the alternative pathway can be evaluated by activating the complement alternative pathway in human serum with zymosan in the presence of the EGTA chelator and assaying the formation of the C5b-9 complex.
Zymosan A powder was resuspended at 10 mg/mL in TBS solution and activated by heating at 100° C. for 2 h. After the activation, the suspension was centrifuged at 4000 rpm for 30 min, and the supernatant was discarded. The residue was resuspended in TBS to form a 50 mg/mL suspension. The suspension was aliquoted and stored in a −20° C. freezer. The day before the experiment, the activated zymosan A solution was diluted to 1 mg/mL with the carbonic acid buffer (pH 9.5) and added to a 96-well adsorption black plate at 100 μL/well, and the plate was coated at 4° C. overnight.
A 100 mM Na2CO3 solution and a 100 mM NaHCO3 solution were prepared and mixed in a ratio of Na2CO3 to NaHCO3 of 3:7 (v/v) to adjust the pH to 9.5. The mixture was stored at room temperature for later use.
Activation reactions of the complement alternative pathway: Human serum was 5-fold diluted with PBS solution to form a 20% serum solution, and the solution was placed on ice for later use. 20 mM test compounds dissolved in 100% DMSO were serially diluted with 100% DMSO to 2000, 500, 125, 31.25, 7.8125, 0.488281, 0.12207, 0.030518, and 0.007629 μM, with the blank well containing 100% DMSO. The compounds and 100% DMSO were then 20-fold diluted in 2× EGTA reaction buffer (4.2 mM HEPES, 0.15 mM CaCl2), 140 mM NaCl, 4.5 mM MgCl2, 0.1% gelatin, 20 mM EGTA). Meanwhile, 100% DMSO was 20-fold diluted in 2× EDTA reaction buffer (4.2 mM HEPES, 0.15 mM CaCl2), 140 mM NaCl, 4.5 mM MgCl2, 0.1% gelatin, 20 mM EDTA) as a negative control well. 40-μL serum-EGTA reaction mixtures were prepared by mixing well 20 μL of 20% human serum, 4 μL of the above test compounds or DMSO diluted in 2× EGTA reaction buffer, and 16 μL of 2× EGTA reaction buffer. Serum-EGTA-DMSO was used as a blank control. The mixtures were incubated at room temperature for 30 min. In the negative control well, a 40-μL serum-EDTA reaction mixture was prepared by mixing well 20 μL of 20% human serum, 4 μL of the above DMSO diluted in 2× EDTA reaction buffer, and 16 μL of 2× EDTA reaction buffer. The mixture was incubated at room temperature for 30 min. The 96-well adsorption black plate coated with zymosan A one day ahead of time was washed 3 times with 300 μL/well TBST (0.05% tween 20) solution, and the serum-EGTA-test compound reaction mixtures, the blank control well, and the serum-EDTA-DMSO reaction mixture (negative control well) were added at 25 L/well. The mixtures were reacted at 37° C. for 40 min. The plate was washed 3 times with 300 μL/well TBST solution, the StartingBlock™ T20 (TBS) blocking buffer was added at 300 μL/well, and the plate was incubated at 37° C. for 15 min.

[2] = tested on: passive heymann nephritis rats; assay: Therapeutic effects on Heymann nephritis in rats induced by sheep anti-rat Fx1A serum; type: in vivo; details: for decrease in rat serum iC3b+C3d compared to the model group: serum day 15; for decrease in the ratio of total protein/creatinine in rat urine compared to the model group: day 14
Text: Experimental animals: laboratory male SD rats, provided by Vital River Laboratory Animal Technology Co., Ltd. (production license number: SCXK (Zhejiang) 2019-0001; animal certificate number: 20210401Abzz0619000322; weighing 180-200 g at purchase).
After the acclimatization, the male SD rats were grouped as follows according to total protein in urine and body weight in the 2 days before the experiment:
On day 0 of the experiment, the model group and administration groups were given a single tail vein injection of Fx1A serum (5 mL/kg), and the normal group was given a tail vein injection of normal goat serum. […] The experiment ended on day 15. Two-hour urine was collected on days 2, 4, 6, 8, 11, and 14 and assayed for creatinine and total protein. Serum was collected on day 15 for complement activation fragment (C3d+iC3b) analysis.
The experimental data are expressed as mean±standard error (SEM). Statistical comparison was performed using Excel software t-test. The data of the model group and the data of the blank control group were analyzed and compared to judge whether a significant mathematical statistical significance exists. *P<0.05 indicates a significant difference between the model group and the blank control group, **P<0.01 indicates a highly significant difference between the model group and the blank control group, and ***P<0.001 indicates a very highly significant difference between the model group and the blank control group. #P<0.05 indicates a significant difference between an administration group and the model group, ##P<0.01 indicates a highly significant difference between an administration group and the model group, and ###P<0.001 indicates a very highly significant difference between an administration group and the model group.

[3] = target: human complement factor B (Homo sapiens (Human), UniProt P00751); assay: biochemical
Experimental: Assays for the C3a des Arg epitope generated after C3 is cleaved can be used to evaluate the efficiency of C3 being hydrolyzed, i.e., the C3bBb enzyme activity, and thereby to evaluate the effects of the compounds on the C3bBb enzyme.
A 100 mM Na2CO3 solution and a 100 mM NaHCO3 solution were prepared and mixed in a ratio of Na2CO3 to NaHCO3 of 3:7 (v/v) to adjust the pH to 9.5. The mixture was stored at room temperature for later use. […] The compounds and 100% DMSO were then 20-fold diluted in C3 reaction buffer (PBS pH 7.4, 1 mM MgCl2, 0.05% CHAPS).
Cleavage reactions of the C3 protein: In a 96-well low-volume white plate, 10-μL reaction systems were prepared by adding CVF:Bb (to a final concentration of 2 nM) and 1 μL of the above test compounds and DMSO diluted in C3 reaction buffer to C3 reaction buffer (PBS pH 7.4, 1 mM MgCl2, 0.05% CHAPS). The plate was incubated at room temperature for 1 h. […] Human complement factor C3 was added to the reaction systems to a final concentration of 500 nM. After they were well mixed, the mixtures were reacted in a constant-temperature incubator at 37° C. for 2 h. Among the reaction mixtures, the reaction well that contained only 500 nM human complement factor C3 was used as a negative control. To a 96-well adsorption black plate, 97 μL of the carbonic acid buffer (pH 9.5) was added, and the C3 protein cleavage reaction mixtures were added at 3 μL/well. After they were well mixed, the plate was sealed and incubated at 4° C. overnight.
C3a des Arg assays: The plate was washed 3 times with 300 μL/well TBST (0.05% tween 20) solution, the StartingBlock™ T20 (TBS) blocking buffer was added at 300 μL/well, and the plate was incubated at 37° C. for 5 min. […] The plate was washed 3 times with 300 μL/well PBST solution, the goat anti-mouse IgG H&L (HRP) antibody was 1:5000 diluted in PBST solution and added at 100 μL/well, and the plate was incubated at 37° C. for 30 min. […]
The inhibition rate was calculated using the following formula:

[4] = tested on: patients with PNH and active hemolysis; details: cited from earlier work
[5] = tested on: IgAN patients; details: 4 IgAN patients, end of phase 2; cited from earlier work

## CCO[C@H]1C[C@H]2CC[C@](c3ccc(C(=O)O)cc3)(C1)N2Cc1c(OC)cc(C)c2[nH]ccc12 (relative stereo) [Example 1, (±)-rel-4-((1S,3S,5R)-3-Ethoxy-8-((5-methoxy-7-methyl-1H-indol-4-yl)methyl)-8-azabicyclo[3.2.1]octan-1-yl)benzoic acid]
[1]
  IC50: 43.2 nM

## CCO[C@H]1C[C@H]2CCC(c3ccc(C(=O)O)cc3)(C1)N2Cc1c(OC)cc(C)c2[nH]ccc12 (stereo in doubt) [Example 1-1, 4-((1S,3S,5R)-3-Ethoxy-8-((5-methoxy-7-methyl-1H-indol-4-yl)methyl)-8-azabicyclo[3.2.1]octan-1-yl)benzoic acid]
[2]; 10 mg/kg orally twice daily
  decrease in rat serum iC3b+C3d compared to the model group: 76.2%
[2]; 30 mg/kg orally twice daily
  decrease in rat serum iC3b+C3d compared to the model group: 105.5%
[2]; 90 mg/kg orally twice daily
  decrease in rat serum iC3b+C3d compared to the model group: 108.7%
[1]
  IC50: 27 nM

## CCO[C@H]1C[C@H]2CCC(c3ccc(C(=O)O)cc3)(C1)N2Cc1c(C)cc(C)c2[nH]ccc12 (stereo in doubt) [Example 3, 4-((1S,3S,5R)-8-((5,7-Dimethyl-1H-indol-4-yl)methyl)-3-ethoxy-8-azabicyclo[3.2.1]octan-1-yl)benzoic acid]
[3]
  IC50: 4.9 nM
[1]
  IC50: 49.8 nM

## CCO[C@H]1C[C@H]2CCC(c3ccc(C(=O)O)cc3)(C1)N2Cc1c(C2CC2)cc(C)c2[nH]ccc12 (stereo in doubt) [Example 4, 4-((1S,3S,5R)-8-((5-Cyclopropyl-7-methyl-1H-indol-4-yl)methyl)-3-ethoxy-8-azabicyclo[3.2.1]octan-1-yl)benzoic acid]
[3]
  IC50: 1.6 nM
[1]
  IC50: 50.6 nM

## CCO[C@H]1C[C@H]2CCC(c3ccc(C(=O)O[C@@H]4O[C@H](C(=O)O)[C@@H](O)[C@H](O)[C@H]4O)cc3)(C1)N2Cc1c(OC)cc(C)c2[nH]ccc12 (stereo in doubt) [Example 5, (2S,3S,4S,5R,6S)-6-((4-((1S,3S,5R)-3-Ethoxy-8-((5-methoxy-7-methyl-1H-indol-4-yl)methyl)-8-azabicyclo[3.2.1]octan-1-yl)benzoyl)oxy)-3,4,5-trihydroxytetrahydro-2H-pyran-2-carboxylic acid]
[3]
  IC50: 30 nM
[1]
  IC50: 74.6 nM

## CCO[C@H]1CCN(Cc2c(OC)cc(C)c3[nH]ccc23)[C@H](c2ccc(C(=O)O)cc2)C1 [LNP023]
[2]; 20 mg/kg orally twice daily
  day from which statistical decreases in urine total protein/creatinine ratio began: 11 days
  decrease in the ratio of total protein/creatinine in rat urine compared to the model group: 56.4%
  decrease in rat serum iC3b+C3d compared to the model group: 62.2%
[2]; 60 mg/kg orally twice daily
  day from which statistical decreases in urine total protein/creatinine ratio began: 11 days
  decrease in the ratio of total protein/creatinine in rat urine compared to the model group: 47.1%
  decrease in rat serum iC3b+C3d compared to the model group: 68.8%
[2]; day 14, across dose groups
  dose dependence of the decrease in urine total protein/creatinine ratio: not significantly dose-dependent
[4]; at 13 weeks, all the patients, LNP023 twice daily with eculizumab
  decrease in LDH: 34-81%
[4]; at 13 weeks
  males with Hb>120 g/L: 71%
[4]; twice daily for at least 13 weeks with eculizumab
  tolerability: well tolerated

## OMS721: humanized monoclonal antibody targeting the MASP-2 protein developed by Omeros Inc.
[5]
  proteinuria index: significantly improved
